Assay [1] has as its system Purified Human T-Lymphoctyes. In words: Thiol levels in purified human T-lymphocytes after treatment with GSH esters. In kind it is cell-based. Conditions: purified T-cells, 0.3 ml 80 mM thiol to 0.9 ml cells, 37° C. As to the method: HPLC Analysis of Cellular Thiols. […] Flow rates were 1 ml/min.
Purified T-cells were suspended in PBS. […] After incubation at 37° C. for the indicated times, cells were recovered and processed as described for PBM in Table 4.
Where values for cysteine are not reported, levels are <0.3 nmol/10^7cells (for 7 min. samples) or <0.5 nmol/10^7 cells (for 90 mni. samples).

For assay [2], the system named is Hamsters (liver, kidney, blood plasma). Kind of assay: Thiol levels in hamsters treated with GSH esters. In kind it is in vivo, Syrian hamster. The note with it: 1 hour later.
The subject of assay [3] is Human Erythrocytes. The note with it: whole blood + one-half volume 120 mM thiol, 30 minutes, 37° C. As to the method: (§1) Derivatization of Cell Thiols for HPLC Analysis. Derivatization mixtures are as follows: Erythrocyte Lysates: 155 μl 50 mM DTPA (pH 7), 110 μl 3.33% SSA, total 180 μl cell supernatant plus "RBC Mix", 10 μl 0.1M mBBr (in CH3 CN), 100 μl of 2M Tris·HCl (pH 9 at room temperature). The samples were placed in the dark for 20-30 minutes at room temperature; the reaction was quenched with 90 μl of glacial acetic acid. Reduced Erythocyte Lysates. 155 μl mM DTT in 50 mM DTPA (pH 7), SSA, sample, and "RBC Mix" as above Tris was added and the samples were agitated at room temperature for 25 min. 20 μl Tris and 10 μl mBBr were added; the derivatization proceeds as above.
(§2) HPLC Analysis of Cellular Thiols. Samples were chromatographed on an Altex Ultrasphere ODS reverse phase column (5μ; 4.6 mm×25 cm), using one of three gradients: (1) Buffer A: 12.8% MeOH, 0.25% acetic acid, 87.75% H2 O, pH 3.9. (2) Buffer B: 90.0% MeOH, 0.25% acetic acid, 9.75% H2 O (no pH Adjustment). (3) Gradient 1: Initial, 100% A, linear gradient to 50% B at 25 min., linear gradient to 100% B at 35 min., wash with 100% B to 39.5 min.; step to 100% A at 40 min.; equilibration with 100% A to 48 min. Gradient 2: Initial, 100% A, linear gradient to 75% B at 25 min., remainder identical to Gradient 1. Gradient 3: Initial, 100% A, linear gradient to 65% A, 35% B at 25 minutes, remainder identical to gradient 1. Flow rates were 1 ml/min.
Whole blood (see Table 1) was mixed with one-half volume of 120 mM GSH, GSH-ME, or GSH-DE at pH 7. The samples were incubated for 30 minutes at 37° C. and then centrifuged. After removal of plasma and buffy coat, the erythrocytes were washed and processed as described in Table 1.

The subject of assay [4] is Human Erythrocytes. Conditions: for Thiol Levels, thiol found GSH / Thiol Levels, Total / Thiol Levels, thiol found GSH-ME: erythrocyte suspension, 80 mM thiol added (one-third vol), 37° C. The protocol: Analysis of Erythrocyte Thiol by DTNB. Cell supernatant (40 μl) was added to 1 ml of 6 mM DTNB (in 143 mM phosphate buffer, pH 7.5, containing 6.3 mM EDTA). The change in absorbance at 412 nm after 1 min was converted to a value for total thiol using a GSH standard curve. The GSH standard were prepared in a 1:2:2 mixture of PBS: 0.435M acetic acid: 10% SSA (containing 2 mM EDTA) ("RBC Mix").
as §1, §2
Whole blood was collected with EDTA or DTPA (0.5M, pH 7) as anticoagulant (0.4 ml/8-12 ml blood). Plasma and buffy coat were removed after centrifugation and the erythrocytes washed 3 times with 1-2 vol PBS/5 mM DTPA or EDTA. Packed erythrocytes were suspended in one-half vol. PBS. To each suspension was one-third vol. GSH, GSH-ME or GSH-DE (80 mM, pH 7). After incubation at 37° C. for the indicated times, aliquots were removed, washed (3-4×) with PBS/EDTA/DTPA, lysed with one volume 0.435M acetic acid, protein-precipitated with one volume 10% SSA/2 mM DTPA, and centrifuged to remove cell debris. Supernatants were derivatized for HPLC analysis as described in Materials and Methods.

For assay [5], the system named is Human Peripheral Blood Mononuclear Cells. The note with it: for Thiol Levels, thiol found GSH / Thiol Levels, Total / Thiol Levels, thiol found GSH-ME: isolated PBM, 0.3 ml 80 mM thiol to 0.9 ml cells, 37° C. As to the method:
(§3) T Cell and PBM Lysates: 120 μl 4 mM DTPA, total 360 μl sample/4.31% SSA (containing 0.5 mM DTPA), 100 μl Tris, 5μ mBBr; 20 min. in the dark, 15 μl glacial acetic acid.
as §2
PBM were isolated from whole blood (see Tables 1 and 3) washed with PBS, and re-suspended in PBS. To 0.9 ml cell suspension (5-8×10^6 cells) was added 0.3 ml of 80 mM GSH, GSH-ME or GSH-DE at pH 7. After incubation at 37° C. for the indicated times, the cells were recovered by centrifugation, washed with 14 ml PBS (2×), and lysed by addition of 4.31% of SSA/0.5 mM DTPA and 2-3 freeze-thaw cycles. After centrifugation, supernatants were derivatized for HPLC analysis.

For assay [6] the test system is unchanged. The note with it: 6 ml whole blood + 3 ml 60 mM thiol, 30 min, 37° C.; PBM. The protocol: as §3, §2
6 mls. whole blood (see Table 1) was mixed with 3 ml of 60 mM GSH, GSH-ME or GSH-DE at pH 7. After 30 min incubation at 37° C., PBM were isolated by Ficoll-Hypaque density gradient centrifugation. Cells were washed with 14 ml PBS (2-3) and lysed with 4.31% SSA/0.5 mM DTPA (400 μl). After centrifugation, the supernatants were derivatized for HPLC analysis.

Read-outs that look alike come from different tables or passages of the source.

As to `CCCCS(=N)(=O)CCC(N)C(=O)O` [BSO, L-buthionine sulfoximine], the “Thiol Levels, thiol found GSH” value was 2.39 ± 0.09 nmol/10^7 cells in assay [1] (7 min, donor A) and below 0.6 nmol/10^7 cells in assay [1] (90 min, donor B). In assay [2] (fasted hamsters, BSO 6 mmol/kg I.P. 2 hours before thiol 5 mmol/kg, kidney), the “Kidney thiol found GSH” value amounted to 1.00 ± 0.19 µmol/g. In addition, the “Liver thiol found GSH” value in assay [2] (fasted hamsters, BSO 6 mmol/kg I.P. 2 hours before thiol 5 mmol/kg, liver) came out at 5.10 ± 0.51 µmol/g.

Take `N[C@@H](CCC(=O)N[C@@H](CS)C(=O)NCC(=O)O)C(=O)O` [GSH, L-γ-glutamyl-L-cysteinyl-glycine]: the “Thiol Levels Found, GSH” value with Human Erythrocytes [3] is recorded as 2.12 ± 0.47 mM. In addition, the “Thiol Levels Found, Total” value in the assay on Human Erythrocytes [3] was 2.12 ± 0.47 mM. In addition, the “Thiol Levels, thiol found GSH” value with Human Erythrocytes [4] (7 min) came out at 1.91 ± 0.05 mM; in the assay with Human Erythrocytes [4] (45 min), 2.04 ± 0.06 mM; in the assay with Human Erythrocytes [4] (90 min) it was 1.83 ± 0.07 mM; in assay [5] (7 min, donor A), 1.86 nmol/10^6 cells; in assay [5] (7 min, donor B), 1.51 nmol/10^6 cells; in assay [5] (45 min, donor B), 1.16 ± 0.06 nmol/10^6 cells. Besides, in assay [5] (90 min, donor A), the “Thiol Levels, thiol found GSH” value was 1.60 nmol/10^6 cells.

Turning to `CCOC(=O)CNC(=O)[C@H](CS)NC(=O)CC[C@H](N)C(=O)O` [GSH-ME, glutathione monoethyl (glycyl) ester], the “Thiol Levels Found, GSH” value in the assay with Human Erythrocytes [3] is 2.35 ± 0.52 mM; in assay [6], 1.46 nmol/10^6 cells. For the same molecule, the “Thiol Levels Found, GSH-ME” value is recorded as 3.45 ± 0.73 mM in the assay with Human Erythrocytes [3] and 2.08 nmol/10^6 cells in assay [6]. Also, the “Thiol Levels Found, Total” value with Human Erythrocytes [3] stood at 5.80 ± 1.25 mM; in assay [6], 3.54 nmol/10^6 cells. In addition, the “Blood plasma levels of GSH” value in assay [2] (hamsters, 5 mmol/kg after BSO) is given as “not affected”. For the same molecule, the “Thiol Levels, Total” value was 2.65 ± 0.31 mM in the assay with Human Erythrocytes [4] (7 min); 3.49 ± 0.35 mM in the assay on Human Erythrocytes [4] (45 min); 3.57 ± 0.38 mM in the assay with Human Erythrocytes [4] (90 min); 3.32 ± 0.19 nmol/10^6 cells in assay [5] (7 min, donor A); 4.39 ± 0.25 nmol/10^6 cells in assay [5] (45 min, donor B); 10.7 ± 1.3 nmol/10^6 cells in assay [5] (90 min, donor A). The “Thiol Levels, thiol found GSH” value in the assay on Human Erythrocytes [4] (7 min) was determined as 1.72 ± 0.27 mM; in the assay on Human Erythrocytes [4] (45 min), 1.83 ± 0.31 mM; with Human Erythrocytes [4] (90 min) it was 1.90 ± 0.30 mM; in assay [5] (7 min, donor A) it was 2.05 ± 0.08 nmol/10^6 cells; in assay [5] (45 min, donor B) it was 1.64 ± 0.06 nmol/10^6 cells; in assay [5] (90 min, donor A), 3.45 ± 0.39 nmol/10^6 cells. The “Thiol Levels, thiol found GSH-ME” value is listed as 0.932 ± 0.04 mM with Human Erythrocytes [4] (7 min); 1.66 ± 0.04 mM with Human Erythrocytes [4] (45 min); 1.67 ± 0.08 mM in the assay with Human Erythrocytes [4] (90 min); 1.27 ± 0.11 nmol/10^6 cells in assay [5] (7 min, donor A); 2.75 ± 0.19 nmol/10^6 cells in assay [5] (45 min, donor B); 7.23 ± 0.88 nmol/10^6 cells in assay [5] (90 min, donor A). Besides, the “total RBC thiol levels” value in the assay on Human Erythrocytes [4] (summary of Table 1) was “about 3 mM”. Moreover, the “total thiols in human PBM” value in assay [5] (in 90 min, text summary of Table 4) worked out at 10.6 mM.

Values taken from patent US5869456A, “Use of glutathione diesters” (priority 1995, dated 1999).
